Test results reported in US5482975A, “Adenosine diphosphoribose polymerase binding nitroso aromatic compounds useful as retroviral inactivating agents, anti-retroviral agents and anti-tumor agents” (priority 1993, dated 1996).

Assays:
ADPRT = conditions: cited from earlier work
[1] = system: various cancer cells (855-2, HL-60, D32, D37, CRL 7712, 186 medulla, L1210, MDA-468); experiment: functions of various cancer cells in presence of compounds (FIGS. 4-9); format: cell-based; conditions: summary statement
Description: (§1) Experiments were performed in which the functions of various cancer cells (855-2 and HL-60 leukemia cells, D32, D37 and CRL 7712 glioblastoma cell lines, 186 medulla tumor cell line, L1210 murine leukemia cell line, MDA-468 human breast tumor cell line) and normal cells (neutrophil leukocytes and bone marrow or peripheral blood stream cells) were assessed in the absence or presence of the compounds.

HIV-1 = experiment: inhibition of HIV infection, virus titer in stimulated human lymphoblasts; format: cell-based; conditions: 30 min exposure, day 10, virus alone 5.25
Description: VIII. Anti-HIV action of NOBP, NOBA and NOQ on stimulated human lymphoblasts.
Exposure to the two drugs was only for 30 minutes at the commencement of viral infection, and drugs were never re-added. The results given in Table III provide the ID50 of HIV titer 10 days after infection of cell cultures with HIV.

[2] = system: normal rhesus bone marrow stem cells; experiment: CFU stem cell toxicity assay (FIG. 5A)
anti-tumor and anti-HIV = experiment: biological action of nitroso compounds (anti-tumor and anti-HIV, summary); format: cell-based; conditions: for anti-tumor and anti-HIV activity: effective even after exposure of cells as short as 30 minutes
[3] = system: human leukemia cell lines (855-2, H9, HL-60, K562); experiment: [3H] thymidine uptake, human leukemia cell lines together; format: cell-based; conditions: 10 μM; each of the cell lines tested
H9 cells = experiment: [3H] thymidine uptake, H9 cells (FIG. 2B); format: cell-based, human; conditions: 10% FCS
K562 cells = experiment: [3H] thymidine uptake, K562 cells (FIG. 2D); format: cell-based, human; conditions: 10% fetal bovine serum
855-2 cells [4] = experiment: [3H] thymidine uptake / growth, 855-2 cells (FIG. 2A, E, F; FIG. 3); format: cell-based, human; conditions: for relative inhibition: 1 μM; for relative inhibition / inhibition / inhibitory effects with different growth factors: 10% fetal bovine serum; for inhibitory effects with different growth factors: AGF or BCGF
Description: FIGS. 2A-2F are a composite of graphs displaying the inhibitory effects of the ADRPT ligands on (FIG. 2A) 855-2 cells (a cell line of human B-cell lineage acute lymphoblastic leukemia), (FIG. 2B) H9 cells (a cell line of human T-cell lineage acute lymphoblastic leukemia), FIG. (2C) HL-60 cells (a cell line of human acute nonlymphoblastic leukemia) and (FIG. 2D) K562 cells (a cell line of human chronic myelogenous leukemia). These cells were cultured while under the influence of the growth factors in 10% fetal bovine serum (FCS), whereas in (FIG. 2E) and (FIG. 2F) the 855-2 cells were cultured in the presence of autocrine growth factor activity (AGF) or low molecular weight-B-cell growth factor (BCGF, a T-cell derived lymphokine), respectively.
Experiments using HL-60 cells (FIG. 2C) provided similar conclusions.
855-2 cells that were grown in media with (1) 10% fetal bovine serum, (2) autocrine growth factor (AGF) and (3) low molecular weight-BCGF (a T cell derived lymphokine) were exposed to increasing concentrations of the ADRPT ligands.

855-2 cells [5] = experiment: colony formation (CFU) of leukemic cells in semi-solid medium (FIG. 4); format: cell-based, human
Description: as §1

HL-60 cells = experiment: as above; format: cell-based, human
Description: as §1

855-2 leukemia cells = experiment: growth inhibition of 855-2 cells, comparison with vincristine (FIG. 7); format: cell-based, human
Description: Vincristine, a highly toxic chemotherapeutic compound, is currently used in the treatment of leukemia and other malignancies. […] Vincristine was tested in doses of 0.1, 1, 10 and 100 μM.

855-2 cells [6] = experiment: cytocidal activity, MTT assay; format: cell-based, human; conditions: 10 μM; 100,000 cells/ml
Description: MTT (3-[4,5-[…]]-2,5-diphenyltetrazolium bromide) at 1 mg/ml was then added for 16 hours. The absorbance of the pelleted cell was then measured at 550 nm after adding DMSO to solubilze the cells.

[7] = system: normal cells (neutrophil leukocytes and bone marrow or peripheral blood cells)
Description: as §1

Human Neutrophils = experiment: superoxide generation by human neutrophils; conditions: 10 μM; mean + S.D., n = 11; PMN + PMA
calf thymus ADPRT = target: T1, calf thymus ADPRT (Bos taurus, UniProt P18493); experiment: ADPRT polymerase activity inhibition / inactivation; format: biochemical
T1 construct: from tissue; host or cells: calf thymus
T1 sequence (P18493 whole entry): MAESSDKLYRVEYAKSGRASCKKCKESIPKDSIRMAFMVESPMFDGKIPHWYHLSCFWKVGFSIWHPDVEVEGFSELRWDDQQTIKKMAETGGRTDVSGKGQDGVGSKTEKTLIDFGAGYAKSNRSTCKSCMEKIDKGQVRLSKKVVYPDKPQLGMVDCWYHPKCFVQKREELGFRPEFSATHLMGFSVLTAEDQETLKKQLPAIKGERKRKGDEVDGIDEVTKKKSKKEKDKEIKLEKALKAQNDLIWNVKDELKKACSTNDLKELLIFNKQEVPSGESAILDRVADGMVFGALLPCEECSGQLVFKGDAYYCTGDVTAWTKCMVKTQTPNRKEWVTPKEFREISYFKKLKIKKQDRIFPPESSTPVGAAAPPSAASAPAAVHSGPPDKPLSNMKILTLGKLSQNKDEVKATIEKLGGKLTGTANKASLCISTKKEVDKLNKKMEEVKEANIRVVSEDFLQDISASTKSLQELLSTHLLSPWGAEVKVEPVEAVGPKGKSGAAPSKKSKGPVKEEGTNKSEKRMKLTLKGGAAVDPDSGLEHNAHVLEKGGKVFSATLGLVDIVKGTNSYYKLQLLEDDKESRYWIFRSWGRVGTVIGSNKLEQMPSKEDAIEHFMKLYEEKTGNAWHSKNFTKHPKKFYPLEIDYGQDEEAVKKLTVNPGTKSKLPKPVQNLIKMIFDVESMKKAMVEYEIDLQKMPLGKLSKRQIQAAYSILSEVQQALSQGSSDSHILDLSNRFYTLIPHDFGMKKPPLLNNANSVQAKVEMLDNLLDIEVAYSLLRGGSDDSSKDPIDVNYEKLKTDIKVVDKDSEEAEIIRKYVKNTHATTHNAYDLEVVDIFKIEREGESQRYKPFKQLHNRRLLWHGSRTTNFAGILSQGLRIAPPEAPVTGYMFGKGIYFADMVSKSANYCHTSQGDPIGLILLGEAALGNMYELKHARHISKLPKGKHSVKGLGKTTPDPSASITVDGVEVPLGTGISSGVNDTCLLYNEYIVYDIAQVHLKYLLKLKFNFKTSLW
Description: | Polymerization at 25° C. for 4 minutes.

Zn(HIV1-F1) = Zn(HIV1-F1) (Human immunodeficiency virus type 1 lw12.3 isolate, UniProt Q70622); conditions: cited from earlier work
[8] = not told

3-aminonaphthylhydrazide
ADPRT polymerase activity inhibition (ADPRT): known to inhibit ADPRT polymerase activity

O=c1ccc2cc([N+](=O)[O-])ccc2o1 [NO2 BP, 6-nitro-1,2-benzopyrone, reference compound]
effectiveness against tumor cells [1]: almost ineffective
Virus Titer (log ID50) (HIV-1; 250 μM): 4.93 log ID50

c1ccc2cnccc2c1 [isoquinoline]
ADPRT polymerase activity inhibition (ADPRT): known to inhibit ADPRT polymerase activity

NC(=O)c1ccccc1 [benzamide]
ADPRT polymerase activity inhibition (ADPRT): known to inhibit ADPRT polymerase activity

O=c1c(O)c(-c2ccc(O)c(O)c2)oc2cc(O)cc(O)c12 [quercetin]
ADPRT polymerase activity inhibition (ADPRT): known to inhibit ADPRT polymerase activity

Nc1ccc2oc(=O)ccc2c1 [ABP, 6-amino-1,2-benzopyrone]
Virus Titer (log ID50) (HIV-1; 500 μM): 4.50 log ID50
ADPRT binding (ADPRT): binds specifically to ADRPT at the site that also binds to DNA
CFU stem cell toxicity ([2]; 1 μM): toxic

O=Nc1ccc2oc(=O)ccc2c1 [NOBP, 6-nitroso-1,2-benzopyrone]
anti-tumor and anti-HIV activity (anti-tumor and anti-HIV): highly active
inhibition of 3H-thymidine uptake [3]: powerfully inhibited
inhibition of thymidine uptake (H9 cells; 100 μM): almost complete inhibition
inhibition of cell growth (K562 cells; 10 μM): almost complete inhibition
inhibition of cell growth (K562 cells; 100 μM): almost complete inhibition
relative potency (K562 cells): most potent inhibitors
relative inhibition (855-2 cells [4]): somewhat more inhibition than NOBA
growth arrest in increasing FCS (855-2 cells [4]; 10 μM, increasing FCS concentrations): Growth arrest occurs irrespective of the concentration of FCS
inhibition (855-2 cells [4]; 10 μM): almost complete inhibition
inhibitory effects with different growth factors (855-2 cells [4]): potent inhibitory effects
effectiveness against tumor cells [1]: highly effective
ability to form colonies (CFU) (855-2 cells [5]): inhibit the ability
ability to form colonies (CFU) (HL-60 cells): inhibit the ability
times more potent than vincristine (855-2 leukemia cells; equal concentration): about 10 times
Virus Titer (log ID50) (HIV-1; 10 μM): 2.01 log ID50
cell killing (855-2 cells [6]): complete killing
effect on colony formation by normal cells [7]: minimal effect on normal cells
effect on viability of normal cells [7]: not to affect adversely the viability of normal cells
toxicity to normal cells [7]: not toxic to normal cells
Generation of Superoxide by Human Neutrophils (Human Neutrophils): 34.1 ± 14.1 nmol 02^- /hr/10^5 cells

Nc1ccc2oc(=O)ccc2c1I [IABP, 5-iodo-6-amino-1,2-benzopyrone]
Virus Titer (log ID50) (HIV-1; 250 μM): 4.66 log ID50
ADPRT polymerase activity inhibition (ADPRT): known ADPRT polymerase activity inhibitors
CFU stem cell toxicity ([2]; 250 μM): toxic

5(7)-nitroso-1(2H)-isoquinolinone [NOQ]
IC50 (calf thymus ADPRT; 25° C., 4 minutes, pH 7.5, read-out: I50 (concentration that inhibits ADPRT enzyme activity 50%)): 13 µM
anti-tumor and anti-HIV activity (anti-tumor and anti-HIV): highly active
inhibition of 3H-thymidine uptake [3]: powerfully inhibited
inhibition of thymidine uptake (H9 cells; 10 μM): almost complete inhibition
relative potency (H9 cells): most potent inhibitor
inhibition of cell growth (K562 cells; 10 μM): almost complete inhibition
relative potency (K562 cells): most potent inhibitors
relative inhibition (855-2 cells [4]): somewhat more inhibition than NOBP
inhibition (855-2 cells [4]; 10 μM): almost complete inhibition
inhibitory effects with different growth factors (855-2 cells [4]): potent inhibitory effects
Virus Titer (log ID50) (HIV-1; 10 μM): 1.73 log ID50
cell killing (855-2 cells [6]): complete killing

O=C(O)CN(CCN(CC(=O)O)CC(=O)O)CC(=O)O [EDTA]
molar excess required to remove zinc from Zn(HIV1-F1) (Zn(HIV1-F1)): 10 fold

O=Nc1ccc2oc(=O)ccc2c1I [compound 6, 5-iodo-6-nitroso-1,2-benzopyrone, reference compound]
inhibition of ADPRT (calf thymus ADPRT): relatively poor inhibitor
biological action, times weaker than 6-N-1,2-benzopyrone (anti-tumor and anti-HIV; relative to 6-nitroso-1,2-benzopyrone): 10 times
permeation [8]: poor permeant molecule

O=c1ccc2ccccc2o1 [coumarin, 1,2-benzopyrone]
ADPRT binding (ADPRT): inhibitory ligand
ADPRT polymerase activity inhibition (ADPRT): known to inhibit ADPRT polymerase activity

CC[C@]1(O)C[C@H]2CN(CCc3c([nH]c4ccccc34)[C@@](C(=O)OC)(c3cc4c(cc3OC)N(C=O)[C@H]3[C@@](O)(C(=O)OC)[C@H](OC(C)=O)[C@]5(CC)C=CCN6CC[C@]43[C@@H]65)C2)C1 [vincristine, reference compound]
concentration required for same growth inhibition as 10 μM NOBP (855-2 leukemia cells; in vitro): 100 µM
